Assay results taken from patent US7109333B2, “Heterocyclic compounds” (SmithKline Beecham Corporation, priority 1998, dated 2006).
Counter-ions that a name gives are not always drawn.

What was measured:
[1] = biological target: T1, c-erbB-2 (Homo sapiens, UniProt P04626); experiment: Substrate phosphorylation assay, erbB2, assay (b) (SPA, 33P-ATP); format: biochemical; details: Tables 1A and 1B
T1 construct: baculovirus expressed, recombinant constructs of the intracellular domains of c-erbB-2 and c-erbB-4; made in house
T1 sequence (P04626 676-1255 limits assumed): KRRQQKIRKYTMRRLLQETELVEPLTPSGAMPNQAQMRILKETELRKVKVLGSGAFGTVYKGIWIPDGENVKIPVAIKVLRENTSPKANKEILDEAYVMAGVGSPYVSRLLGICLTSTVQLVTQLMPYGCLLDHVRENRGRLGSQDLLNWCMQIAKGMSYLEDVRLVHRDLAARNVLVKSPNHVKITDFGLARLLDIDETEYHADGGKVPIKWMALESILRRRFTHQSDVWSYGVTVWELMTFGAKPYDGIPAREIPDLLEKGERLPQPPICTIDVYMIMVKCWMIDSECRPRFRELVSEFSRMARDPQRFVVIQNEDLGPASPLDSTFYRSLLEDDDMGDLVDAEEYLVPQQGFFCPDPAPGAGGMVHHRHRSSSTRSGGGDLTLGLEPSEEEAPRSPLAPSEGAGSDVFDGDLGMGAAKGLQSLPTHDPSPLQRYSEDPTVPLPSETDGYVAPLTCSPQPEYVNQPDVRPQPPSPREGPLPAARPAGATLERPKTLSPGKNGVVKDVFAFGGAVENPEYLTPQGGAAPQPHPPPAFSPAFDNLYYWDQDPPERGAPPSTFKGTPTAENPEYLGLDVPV
Source text: The substrate phosphorylation assays use baculovirus expressed, recombinant constructs of the intracellular domains of c-erbB-2 and c-erbB-4 that are constitutively active and EGFr isolated from solubilised A431 cell membranes. The method measures the ability of the isolated enzymes to catalyse the transfer of the g-phosphate from ATP onto tyrosine residues in a biotinylated synthetic peptide (Biotin-[…]. Substrate phosphorylation was detected following either of the following two procedures: a.) c-ErbB-2, c-ErbB4 or EGFr were incubated for 30 minutes, at room temperature, with 10 mM MnCl2, 10 mM ATP, 5 mM peptide, and test compound (diluted from a 5 mM stock in DMSO, final DMSO concentration is 2%) in 40 mM HEPES buffer, pH 7.4. The reaction was stopped by the addition of EDTA (final concentration 0.15 mM) and a sample was transferred to a streptavidin-coated 96-well plate. The plate was washed and the level of phosphotyrosine on the peptide was determined using a Europium-labelled antiphosphotyrosine antibody and quantified with a time-resolved fluorescence technique. b.) ErbB2 was incubated for 50 minutes at room temperature with 15 mM MnCl2, 2 mM ATP, 0.25 mCi [γ-^33P] ATP/well, 5 mM peptide substrate, and test compound (diluted from a 10 mM stock in DMSO, final DMSO concentration is 2%) in 50 mM MOPS pH 7.2. The reaction was terminated by the addition of […] of PBS containing 2.5 mg/ml streptavidin-coated SPA beads (Amersham Inc.), 50 mM ATP, 10 mM EDTA and 0.1% TX-100. The microtitre plates were sealed and SPA beads were allowed to settle for at least six hours. The SPA signal was measured using a Packard Topcount 96-well plate scintillation counter (Packard Instrument Co., Meriden, Conn.).

[2] = system: HB4a c5.2 (HB4a transfected with human c-erbB2 cDNA); experiment: Methylene blue growth inhibition assay, HB4a erbB2; format: cell-based; details: 72 h, HB4a c5.2, 3 days, read-out: Cell Proliferation HB4a erbB2, IC50
Protocol: (§1) Human breast (BT474), head and neck (HN5) and gastric tumor (N87) cell lines were cultured in low glucose DMEM (Life Technologies 12320–032) containing 10% fetal bovine serum (FBS) at 37° C. in a humidified 10% CO2, 90% air incubator. The SV40 transformed human mammary epithelial cell line HB4a was transfected with either human H-ras cDNA (HB4a r4.2) or the human c-erbB2 cDNA (HB4a c5.2). The HB4a clones were cultured in RPMI containing 10% FBS, insulin (5 μg/ml), hydrocortisone (5 μg/ml), supplemented with the selection agent hygromycin B (50 μg/ml). Cells were harvested using trypsin/EDTA, counted using a haemocytometer, and plated in […] of the appropriate media, at the following densities, in a 96-well tissue culture plate (Falcon 3075): BT474 10,000 cells/well, HN5 3,000 cells/well, N87 10,000 cells/well, HB4a c5.2 3,000 cells/well, HB4a r4.2 3,000 cells/well. The next day, compounds were diluted in DMEM containing […] gentamicin, at twice the final required concentration, from 10 mM stock solutions in DMSO. […] of these dilutions were added to the […] of media currently on the cell plates. Medium containing 0.6% DMSO was added to control wells. Compounds diluted in DMEM were added to all cell lines, including the HB4a r4.2 and HB4a c5.2 cell lines. The final concentration of DMSO in all wells was 0.3%. Cells were incubated at 37° C., 10% CO2 for 3 days. Medium was removed by aspiration. Cell biomass was estimated by staining cells with 100 μl per well methylene blue (Sigma M9140, 0.5% in 50:50 ethanol:water), and incubation at room temperature for at least 30 minutes. Stain was removed, and the plates rinsed under a gentle stream of water, and air-dried. To release stain from the cells 100 μl of solubilization solution was added (1% N-lauroyl sarcosine, Sodium salt, Sigma L5125, in PBS), and plates were shaken gently for about 30 minutes. Optical density at 620 nm was measured on a microplate reader. Percent inhibition of cell growth was calculated relative to vehicle treated control wells. Concentration of compound that inhibits 50% of cell growth (IC50) was interpolated using nonlinear regression (Levenberg-Marquardt) and the equation, y=Vmax*(1−(x/(K+x)))+Y2, where “K” was equal to the IC50.

[3] = system: HB4a r4.2 (HB4a transfected with human H-ras cDNA); experiment: Methylene blue growth inhibition assay, HB4a ras; format: cell-based; details: 72 h, HB4a r4.2, 3 days, read-out: Cell Proliferation HB4a ras, IC50
Protocol: as §1

[4] = system: BT474 breast tumor cell line; experiment: Methylene blue growth inhibition assay, BT474; format: cell-based; details: Homo sapiens, BT-474, 72 h; BT474, 3 days; read-out: Cell Proliferation BT474, IC50
Protocol: as §1

[5] = system: HN5 head and neck tumor cell line; experiment: Methylene blue growth inhibition assay, HN5; format: cell-based; details: Homo sapiens, 72 h; HN5, 3 days; read-out: Cell Proliferation HN5, IC50
Protocol: as §1

[6] = system: N87 gastric tumor cell line; experiment: Methylene blue growth inhibition assay, N87; format: cell-based; details: Homo sapiens, 72 h; N87, 3 days; read-out: Cell Proliferation N87, IC50
Protocol: as §1

IC50 [1] [µM]	IC50 [4] [µM]	IC50 [5] [µM]	IC50 [6] [µM]	Structure (SMILES)	IC50 [2] [µM]	IC50 [3] [µM]
0.1 to 1	< 5	< 5	< 5	CS(=O)(=O)CCNCc1coc(-c2cc3c(Nc4ccc(OCc5cccc(F)c5)cc4)ncnc3cn2)c1 [Example 6, (4-(3-Fluorobenzyloxy)-phenyl)-(6-(4-((2-methanesulphonyl-ethylamino)-methyl)-furan-2-yl)-pyrido[3,4-d]pyrimidin-4-yl)-amine dihydrochloride]	< 5	25 to 50
< 0.1	< 5	< 5	< 5	CS(=O)(=O)CCNCc1ccc(-c2ccc3ncnc(Nc4ccc(OCc5cccc(F)c5)cc4)c3c2)o1 [Example 8, N-{4-[(3-fluorobenzyl)oxy]phenyl}-6-[5-({[2-(methanesulphonyl)ethyl]amino}methyl)-2-furyl]-4-quinazolinamine]	< 5	5 to 25
–	< 5	< 5	< 5	COc1cc(Nc2ncnc3ccc(-c4ccc(CNCCS(C)(=O)=O)o4)cc23)ccc1OCc1cccc(F)c1 [Example 9, N-{4-[(3-fluorobenzyl)oxy]-3-methoxyphenyl}-6-[5-({[2-(methanesulphonyl)ethyl]amino}methyl)-2-furyl]-4-quinazolinamine]	< 5	5 to 25
< 0.1	< 5	< 5	< 5	COc1cc2ncnc(Nc3ccc(OCc4ccccc4)cc3)c2cc1-c1ccc(CNCCS(C)(=O)=O)o1 [Example 10]	< 5	5 to 25
< 0.1	< 5	< 5	< 5	CS(=O)(=O)CCNCc1coc(-c2ccc3ncnc(Nc4ccc(OCc5ccccc5)cc4)c3c2)c1 [Example 11, N-[4-(benzyloxy)phenyl]-6-[4-({[2-(methanesulphonyl)ethyl]amino}methyl)-2-furyl]-4-quinazolinamine]	< 5	> 50
0.1 to 1	< 5	5 to 25	< 5	COc1cc(Nc2ncnc3ccc(-c4csc(CNCCS(C)(=O)=O)n4)cc23)ccc1OCc1cccc(F)c1 [Example 12, N-{4-[(3-fluorobenzyl)oxy]-3-methoxyphenyl}-6-[2-({[2-(methanesulphonyl)ethyl]amino}methyl)-1,3-thiazol-4-yl]-4-quinazolinamine]	< 5	> 50
0.1 to 1	5 to 25	25 to 50	5 to 25	CS(=O)(=O)CCNCc1nc(-c2ccc3ncnc(Nc4ccc(OCc5cccc(Br)c5)cc4)c3c2)cs1 [Example 13, N-{4-[(3-bromobenzyl)oxy]phenyl}-6-[2-({[2-(methanesulphonyl)ethyl]amino}methyl)-1,3-thiazol-4-yl]-4-quinazolinamine]	5 to 25	> 50
< 0.1	< 5	< 5	< 5	CS(=O)(=O)CCNCc1nc(-c2ccc3ncnc(Nc4ccc(OCc5cccc(F)c5)cc4)c3c2)cs1 [Example 14, N-{4-[(3-fluorobenzyl)oxy]phenyl}-6-[2-({[2-(methanesulphonyl)ethyl]amino}methyl)-1,3-thiazol-4-yl]-4-quinazolinamine]	< 5	> 50

Structure (SMILES)	IC50 [1] [µM]	IC50 [4] [µM]	IC50 [5] [µM]	IC50 [6] [µM]	IC50 [2] [µM]	IC50 [3] [µM]
CS(=O)(=O)CCNCc1ccc(-c2ccc3ncnc(Nc4ccc(OCc5cccc(F)c5)c(Cl)c4)c3c2)o1 [Example 29, N-{3-Chloro-4-[(3-fluorobenzyl)oxy]phenyl}-6-[5-({[2-(methanesulphonyl)ethyl]amino}methyl)-2-furyl]-4-quinazolinamine]	–	< 5	< 5	< 5	< 5	> 50
